Some results are limits rather than exact numbers.

One experiment has as its system brain serine hydrolases. It counts as biochemical, mouse.
In another experiment the target is BAT5 (Mus musculus, UniProt Q9Z1Q2). Briefly: biochemical.
Another experiment concerns the target BAT5 (60 kDa hydrolase) (Mus musculus, UniProt Q9Z1Q2). It counts as biochemical.
Another experiment deals with PLA2g7 (Mus musculus, UniProt Q60963). Briefly: biochemical.
A further experiment deals with KIAA1363 (Mus musculus, UniProt Q8BLF1). The experiment in a line: biochemical.
In the next experiment the target is FAAH (Mus musculus, UniProt O08914). The experiment in a line: biochemical.
For another experiment, the target named is ABHD12 (Mus musculus, UniProt Q99LR1). Briefly: biochemical.
Sequence of ABHD12 (Q99LR1 whole entry): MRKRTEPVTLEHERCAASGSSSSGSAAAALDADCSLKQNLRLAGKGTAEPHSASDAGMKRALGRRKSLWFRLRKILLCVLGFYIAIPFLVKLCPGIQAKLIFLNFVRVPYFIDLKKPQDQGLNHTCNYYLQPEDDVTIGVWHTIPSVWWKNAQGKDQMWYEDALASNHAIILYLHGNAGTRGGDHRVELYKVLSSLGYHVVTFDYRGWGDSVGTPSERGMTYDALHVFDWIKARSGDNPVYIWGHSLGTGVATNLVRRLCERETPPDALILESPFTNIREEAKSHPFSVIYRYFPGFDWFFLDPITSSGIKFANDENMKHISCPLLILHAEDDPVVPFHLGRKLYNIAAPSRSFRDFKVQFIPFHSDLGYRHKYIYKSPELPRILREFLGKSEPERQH

Sequence of PLA2g7 (Q60963 22-440): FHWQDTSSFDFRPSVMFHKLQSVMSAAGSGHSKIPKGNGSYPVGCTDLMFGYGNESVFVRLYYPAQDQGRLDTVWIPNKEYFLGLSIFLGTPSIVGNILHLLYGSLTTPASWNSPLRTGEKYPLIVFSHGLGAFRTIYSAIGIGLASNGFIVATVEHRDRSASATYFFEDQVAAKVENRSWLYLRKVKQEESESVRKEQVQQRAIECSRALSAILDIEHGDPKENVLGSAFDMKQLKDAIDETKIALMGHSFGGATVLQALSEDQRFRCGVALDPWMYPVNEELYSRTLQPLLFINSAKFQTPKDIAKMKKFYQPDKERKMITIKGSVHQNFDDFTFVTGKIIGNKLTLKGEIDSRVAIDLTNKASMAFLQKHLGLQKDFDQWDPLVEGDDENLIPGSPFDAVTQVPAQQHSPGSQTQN
Sequence of BAT5 (Q9Z1Q2 whole entry): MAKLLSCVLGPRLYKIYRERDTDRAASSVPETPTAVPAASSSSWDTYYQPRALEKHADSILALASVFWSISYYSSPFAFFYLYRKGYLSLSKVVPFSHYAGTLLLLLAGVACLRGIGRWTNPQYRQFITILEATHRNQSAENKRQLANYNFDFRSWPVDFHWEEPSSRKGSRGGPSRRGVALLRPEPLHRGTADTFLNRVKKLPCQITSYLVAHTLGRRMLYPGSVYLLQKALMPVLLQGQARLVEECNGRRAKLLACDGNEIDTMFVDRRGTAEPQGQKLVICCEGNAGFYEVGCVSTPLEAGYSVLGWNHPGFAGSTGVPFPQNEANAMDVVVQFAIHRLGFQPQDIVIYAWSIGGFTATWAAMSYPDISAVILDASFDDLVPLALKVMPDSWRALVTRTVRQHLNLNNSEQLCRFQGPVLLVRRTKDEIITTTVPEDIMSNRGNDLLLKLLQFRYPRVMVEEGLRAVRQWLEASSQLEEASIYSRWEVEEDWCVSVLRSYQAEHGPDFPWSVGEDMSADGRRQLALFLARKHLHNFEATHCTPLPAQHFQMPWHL
Sequence of FAAH (O08914 whole entry): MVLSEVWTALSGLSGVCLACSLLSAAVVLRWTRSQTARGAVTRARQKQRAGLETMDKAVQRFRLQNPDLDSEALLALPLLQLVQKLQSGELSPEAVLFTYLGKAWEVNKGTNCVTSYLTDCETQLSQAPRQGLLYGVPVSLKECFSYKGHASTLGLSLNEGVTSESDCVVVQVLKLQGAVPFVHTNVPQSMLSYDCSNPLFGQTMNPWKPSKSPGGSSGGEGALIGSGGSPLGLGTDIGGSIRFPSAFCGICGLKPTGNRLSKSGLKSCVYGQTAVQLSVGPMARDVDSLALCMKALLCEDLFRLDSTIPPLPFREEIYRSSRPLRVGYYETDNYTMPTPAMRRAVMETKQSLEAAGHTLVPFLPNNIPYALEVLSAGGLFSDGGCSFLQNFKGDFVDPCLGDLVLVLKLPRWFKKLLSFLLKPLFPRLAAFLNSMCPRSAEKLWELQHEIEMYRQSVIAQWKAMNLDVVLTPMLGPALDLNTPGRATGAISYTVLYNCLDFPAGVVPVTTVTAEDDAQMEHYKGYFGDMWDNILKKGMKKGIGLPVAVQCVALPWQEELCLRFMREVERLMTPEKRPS
Sequence of BAT5 (60 kDa hydrolase) (Q9Z1Q2 whole entry): as the sequence (Q9Z1Q2 whole entry) above
Sequence of KIAA1363 (Q8BLF1 whole entry): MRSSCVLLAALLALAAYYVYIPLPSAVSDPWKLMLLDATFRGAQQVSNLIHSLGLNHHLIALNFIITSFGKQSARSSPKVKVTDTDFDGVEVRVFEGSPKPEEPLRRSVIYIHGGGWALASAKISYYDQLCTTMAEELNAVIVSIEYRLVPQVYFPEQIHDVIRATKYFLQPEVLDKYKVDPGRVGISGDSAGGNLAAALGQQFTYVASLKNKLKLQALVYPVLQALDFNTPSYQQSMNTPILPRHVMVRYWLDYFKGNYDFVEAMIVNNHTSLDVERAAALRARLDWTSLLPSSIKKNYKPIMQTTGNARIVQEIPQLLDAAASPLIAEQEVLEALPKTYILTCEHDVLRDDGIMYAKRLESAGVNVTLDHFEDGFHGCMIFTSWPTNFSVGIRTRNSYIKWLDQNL

By IC50 is commonly meant the concentration that gives 50% inhibition. Higher therefore signals a need for much substance. As to `O=C(NCCCCCCNC(=O)ON=C1CCCCC1)ON=C1CCCCC1` [RHC80267], the “number of hydrolase activities whose labeling is blocked” value in the experiment on brain serine hydrolases is recorded as “three”. Moreover, at BAT5, the concentration for half-maximal inhibition (IC50) was in the range of 10 to 70 µM and the “inhibition of recombinant BAT5 (in words)” value is “inhibited”. At BAT5 (60 kDa hydrolase), the “sensitivity of 60 kDa hydrolase (tentatively BAT5) to inhibitor” value is on record as “sensitive”. Also, at PLA2g7, the half-inhibitory concentration (IC50) was 10 to 70 µM and the “inhibition of recombinant PLA2g7 (in words)” value is listed as “inhibited”. Further, at KIAA1363, the IC50 lay within 10 to 70 µM and the “inhibition of recombinant KIAA1363 (in words)” value was “inhibited”. Moreover, on FAAH, the IC50 was 10 to 70 µM and the “inhibition of recombinant FAAH (in words)” value is listed as “inhibited”.

`CCCCCCCCCCC[C@@H](C[C@@H]1OC(=O)[C@H]1CCCCCC)OC(=O)[C@H](CC(C)C)NC=O` [THL, tetrahydrolipstatin] yielded a half-maximal inhibitory concentration (IC50) against ABHD12 below 0.1 µM. For the same compound, at BAT5, the IC50 is below 0.1 µM and the “inhibition of recombinant BAT5 (in words)” value is reported as “inhibited”. The “sensitivity of 60 kDa hydrolase (tentatively BAT5) to inhibitor” value on BAT5 (60 kDa hydrolase) is given as “sensitive”. In addition, on PLA2g7, the IC50 was below 0.1 µM and the “inhibition of recombinant PLA2g7 (in words)” value is listed as “inhibited”.

Values taken from PMC2634297 (Bioorganic & medicinal chemistry letters, 2008).
